We go through 1 compound from article PMC10925693, “The Mla system and its role in maintaining outer membrane barrier function in Stenotrophomonas maltophilia” (Frontiers in Cellular and Infection Microbiology, 2024).

As a reminder, the Kd is a measure of binding affinity in units of concentration.

For this assay, the target named is MlaC (Smlt4673) (Stenotrophomonas maltophilia, UniProt B2FP85). Nature of the assay: MicroScale Thermophoresis (MST), supported by nanoDSF Tm shift. It is filed as binding. (In general: In MST a laser heats a spot of the sample, and binding alters the fluorescence response.)
Chain of MlaC (Smlt4673) (B2FP85 entry or part of it): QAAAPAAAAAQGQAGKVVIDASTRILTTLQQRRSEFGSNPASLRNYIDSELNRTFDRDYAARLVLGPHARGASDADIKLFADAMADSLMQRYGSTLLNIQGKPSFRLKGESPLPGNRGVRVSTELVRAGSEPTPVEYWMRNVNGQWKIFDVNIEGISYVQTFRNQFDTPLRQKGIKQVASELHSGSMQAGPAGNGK

Each structure is given as a SMILES string.

For the compound `CCCCCCCCCCCCCC(=O)OC[C@H](COP(=O)(O)OCCN)OC(=O)CCCCCCCCCCCCC` [PE14/14, PE C14:0/C14:0], the Kd came to 795 µM.
